From EP2605769B1, “BENZOQUINONE DERIVATIVES FOR THE TREATMENT OF MITCHONDRIAL EYE DISEASES” (Santhera Pharmaceuticals (Schweiz) AG, priority 2010, dated 2012)

Assays:
[1] = tested on: HepG2 hepatoblastoma cell line; assay: Cytotoxicity assay (WST-1); assay type: cell-based, human; conditions: Hep-G2 cells, 24 hours exposure
Text: This assay investigates cytotoxicity which is defined as the cell-killing property of a chemical compound, independent from the mechanisms of cell death. The HepG2 hepatoblastoma cell line is one of the most common human cell lines for hepatotoxicity studies. […] This assay measures metabolic activity of living cells using the WST-1 cell proliferation reagent (Roche Diagnostics). The tetrazolium salt WST-1 is cleaved to water soluble formazan by cellular enzymes. An expansion in the number of viable cells results in an increase in the overall activity of mitochondrial dehydrogenases in the sample. This augmentation in enzyme activity leads to an increase in the amount of formazan dye formed, which directly correlates to the number of metabolically active cells in the culture. The formazan dye produced by metabolically active cells is directly quantified in a scanning multiwell spectrophotometer by measuring the absorbance of the formazan dye solution between 420 and 480 nm. Healthy HepG2 cells, when maintained in culture, continuously divide and multiply over time. A toxic chemical, regardless of site and mechanism of action, will interfere with this process and result in the reduction of the growth rate reflected in the cell number.
Experimental Procedure: Hep-G2 cells are seeded into a 96-well microplate and maintained in culture for 24 hours. They are then exposed to the test compound over a range of eight concentrations. After 24 hours exposure, the cells are incubated in presence of reagent WST-1 for 30 min before measuring the absorbance of the formazan dye formed. Cytotoxicity is expressed as a concentration dependent reduction of the conversion formazan dye formation due to a decrease in cell proliferation as compared to untreated cells. The TC50 (Toxic Concentration 50%), is defined as the concentration of tested compound required to reduce the cellular viability by 50% relative to the control culture. The lower the TC50 value, the higher is the cytotoxic potential of the test compound. […]

[2] = tested on: Primary human fibroblasts C4 (GM04545, Coriell); assay: Lipid peroxidation assay (BODIPY 581/591-C11); assay type: cell-based; conditions: 10 µM test compound, 72 hours
Text: Lipid peroxidation is a well defined mechanism of cellular damage in both animals and plants that occurs during aging and in some disease states. This process proceeds by a free radical chain reaction mechanism. […] If not terminated fast enough, lipid peroxidation damages cellular membranes, affect membrane fluidity and also mitochondrial function. In addition, end products of lipid peroxidation may be mutagenic and carcinogenic. For instance, the reactive end product of lipid peroxidation, malondialdehyde, directly causes DNA damage. Experimental Procedure: […] BODIPY 581/591-C11 can be used to measure antioxidant activity in lipid environments by exploiting its loss of fluorescence upon interaction with peroxyl radicals. […] After that, 0.1 ml freshly prepared dye solution (HBSS, containing BODIPY dye 1:1000 from stock solution) was added and cells were returned to the incubator for 30 min. After 2 brief washes with 0.1 ml warmed PBS fluorescence was measured in 50 µl PBS. Fluorescence for 4 individual areas per well were individually quantified at two wavelengths (Ex1: 490, Em1: 600; Ex2: 490, Em2: 530, bandwith 10nm, 50 flashes, 400Hz frequency, 20 µs integration time).

Complex II-III = assay: Measurement of mitochondrial complex II activity (SURFE2R CII-CIII assay); assay type: biochemical; conditions: test compound ~4 µM, peak current normalized
Text: Complex II (CII) is an enzyme complex bound to the matrix face of the inner mitochondrial membranes. It consists of four subunits with several different enzymatic activities. One of these is the citric acid-cycle enzyme succinate dehydrogenase, which catalyzes the conversion from succinate to fumarate. In this reaction electrons are transferred from succinate to the prosthetic group FAD thus generating FADH2 ([…] 2000). These electrons are then transferred from the reduced FADH2 to ubiquinone, from ubiquinone to the reaction centers of complex III (CIII), and finally to the cytochrome c. During this electron translocation process, complex III pumps four protons from matrix to the intermembrane space. These proton fluxes can be detected as electrical currents on SSM-based SURFE2R sensors (http://www.sd-heidelberg.de/index.html). In the SURFE2R CII-CIII assay, both, CII and CIII are activated simultaneously by first equilibrating the sensors with succinate and then activating the CII-CIII reaction by oxidized cytochrome c. The resulting efflux of protons out from the membrane compartment induces negative currents, which are sensitive to the CII and CIII inhibitors malonate and antimycin A, respectively. Experimental Procedure: SURFE2R SSM sensors were coated with inner mitochondrial membranes according to the standard protocols. Briefly, sensors were filled with 50 μL of SensorPrep A solution and incubated for 10-15 min. […] The biosensors were thawed immediately before the experiment and measured with the SURFE2R Workstation 50 or 500 devices. […] For the activity of CII-III, the peak current (current amplitude) was evaluated. […] Afterwards, a test compound (~4 μM) was supplied to the non-activating and the activating solutions and the CII-III activity was recorded for further ~50 min (110 min in total). […] For those test compounds, which activated CII-III by more than 30% at time 80 to 110 min, the CII-CIII activity was recorded for additional ~50 min (up to 160 min in total).

Row | Compound | TC50 [1] [µM] | Lipid peroxidation [2] [%] | Complex II-III activity (Complex II-III) [%]
1 | COC1=C(OC)C(=O)C(CCCCCCCCCCO)=C(C)C1=O [Compound IA, Idebenone] | 100 | 98 | 102
2 | COC1=C(OC)C(=O)C(CCCCCCCCCC(C)(C)O)=C(C)C1=O [Compound IC] | – | 92 | 97
3 | CCCCCCCCCCCC1=C(O)C(=O)C=C(O)C1=O [Compound IE, Embelin] | 100 | 110 | 110
